Earlier results, collected in article PMC7904743, “WIDOCK: a reactive docking protocol for virtual screening of covalent inhibitors” (Journal of Computer-Aided Molecular Design, 2021).
Where two headings read alike, the source gives them in different places.

Columns and labels:
[1] = system: NUDT7; settings: protein labeling at 200 μM; experimental actives if % labeling higher than 50%; cited from earlier work
[2] = thiol reactivity, cited from earlier work
[3] = system: OTUB2; settings: OTUB2 protein labeling; experimental actives if % labeling higher than 50%; cited from earlier work
[4] = natural log of average kinetic rate constant
[5] = natural log of average rate constant

| SMILES | NUDT7 % labeling [1] [%] | ln(avg k) [2, 4] | ln(avg k) [2, 5] | OTUB2 % labeling [3] [%] |
| --- | --- | --- | --- | --- |
| O=C(CCl)N1CCN(c2ccccc2[N+](=O)[O-])CC1 [PCM-0103016, O=C(CCl)N1CCN(c2ccccc2[N+](=O)[O-])CC1] | 27 | -15.523 | -15.523 | 9 |
| Cc1ccc(CN(C)C(=O)CCl)cc1 [PCM-0103017, Cc1ccc(CN(C)C(=O)CCl)cc1] | 9 | -16.138 | -16.138 | 0 |
| CS(=O)(=O)c1ccc(F)c(NC(=O)CCl)c1 [PCM-0103018, CS(=O)(=O)c1ccc(F)c(NC(=O)CCl)c1] | 0 | -15.950 | -15.950 | 16 |
| CC1CCC(N(C)C(=O)CCl)CC1 (centres unmarked) [PCM-0103019, CC1CCC(N(C)C(=O)CCl)CC1] | 0 | -16.049 | -16.049 | 0 |
| O=C(CCl)NCC1Cc2ccccc2O1 (centres unmarked) [PCM-0103020, O=C(CCl)NCC1Cc2ccccc2O1] | 0 | -17.072 | -17.072 | 0 |
| O=C(CCl)N1CCN(c2ncc(Cl)cc2Cl)CC1 [PCM-0103022, O=C(CCl)N1CCN(c2ncc(Cl)cc2Cl)CC1] | 22 | -15.906 | -15.906 | 0 |
| CC(C)N(C(=O)CCl)C(C)C [PCM-0103023, CC(C)N(C(=O)CCl)C(C)C] | 0 | -17.155 | -17.155 | 0 |
| O=C(CCl)N1CCc2sccc2C1c1ccccc1 (centres unmarked) [PCM-0103024, O=C(CCl)N1CCc2sccc2C1c1ccccc1] | 69 | -15.442 | -15.442 | 0 |
| CC1CCCCC1N(C)C(=O)CCl (centres unmarked) [PCM-0103026, CC1CCCCC1N(C)C(=O)CCl] | 12 | -15.777 | -15.777 | 0 |
| COC(=O)c1ccc(C)c(NC(=O)CCl)c1 [PCM-0103027, COC(=O)c1ccc(C)c(NC(=O)CCl)c1] | 5 | -16.113 | -16.113 | 0 |
| Cc1ccc(NC(=O)CCl)c(F)c1 [PCM-0103028, Cc1ccc(NC(=O)CCl)c(F)c1] | 0 | -16.314 | -16.314 | 14 |
| CC(NC(=O)CCl)c1ccc2c(c1)OCO2 (centres unmarked) [PCM-0103030, CC(NC(=O)CCl)c1ccc2c(c1)OCO2] | 12 | -16.554 | -16.554 | 28 |
| Cc1ccc2nc(NC(=O)CCl)sc2c1 [PCM-0103031, Cc1ccc2nc(NC(=O)CCl)sc2c1] | 88 | -15.473 | -15.473 | 18 |
| O=C(CCl)N1CCN(c2cccc(Cl)c2)CC1 [PCM-0103032, O=C(CCl)N1CCN(c2cccc(Cl)c2)CC1] | 22 | -15.657 | -15.657 | 21 |
| N#Cc1cccc(NC(=O)CCl)c1 [PCM-0103033, N#Cc1cccc(NC(=O)CCl)c1] | 0 | -15.647 | -15.647 | 23 |
| CC(NC(=O)CCl)c1ccc(F)cc1F (centres unmarked) [PCM-0103035, CC(NC(=O)CCl)c1ccc(F)cc1F] | 15 | -15.881 | -15.881 | 34 |
| O=C(CCl)NC(=O)NCC(F)(F)F [PCM-0103037, O=C(CCl)NC(=O)NCC(F)(F)F] | 0 | -15.772 | -15.772 | 30 |
| O=C(CCl)N1CC=C(c2ccccc2)CC1 [PCM-0103038, O=C(CCl)N1CC=C(c2ccccc2)CC1] | 0 | -16.846 | -16.846 | 9 |

| SMILES | NUDT7 % labeling [1] [%] | ln(avg k) [2, 4] | ln(avg k) [2, 5] | OTUB2 % labeling [3] [%] |
| --- | --- | --- | --- | --- |
| O=C(CCl)Nc1ccc(F)cc1Cl [PCM-0103040, O=C(CCl)Nc1ccc(F)cc1Cl] | 0 | -16.348 | -16.348 | 0 |
| COc1ccc(C)cc1NC(=O)CCl [PCM-0103043, COc1ccc(C)cc1NC(=O)CCl] | 6 | -16.699 | -16.699 | 27 |
| O=C(CCl)NC1CCOCC1 [PCM-0103045, O=C(CCl)NC1CCOCC1] | 0 | -16.016 | -16.016 | 0 |
| CC(C)(C)n1ncc2c1CCCC2NC(=O)CCl (centres unmarked) [PCM-0103046, CC(C)(C)n1ncc2c1CCCC2NC(=O)CCl] | 0 | -16.467 | -16.467 | 36 |
| O=C(CCl)NCc1cccc(F)c1 [PCM-0103047, O=C(CCl)NCc1cccc(F)c1] | 0 | -16.636 | -16.636 | 43 |
| COC(=O)c1cccc(NC(=O)CCl)c1 [PCM-0103048, COC(=O)c1cccc(NC(=O)CCl)c1] | 0 | -15.795 | -15.795 | 87 |
| O=C(CCl)NCc1cc(Br)cs1 [PCM-0103050, O=C(CCl)NCc1cc(Br)cs1] | 13 | -16.422 | -16.422 | 84 |
| CCC1c2ccsc2CCN1C(=O)CCl (centres unmarked) [PCM-0103051, CCC1c2ccsc2CCN1C(=O)CCl] | 30 | -15.594 | -15.594 | 0 |
| Cc1nc(-c2ccc(C)c(NC(=O)CCl)c2)n[nH]1 [PCM-0103052, Cc1nc(-c2ccc(C)c(NC(=O)CCl)c2)n[nH]1] | 12 | -16.586 | -16.586 | 9 |
| O=C(CCl)NC1CCN(C2CC2)CC1 [PCM-0103055, O=C(CCl)NC1CCN(C2CC2)CC1] | 0 | -16.125 | -16.125 | 0 |
| Cc1cc(NC(=O)CCl)n(C(C)(C)C)n1 [PCM-0103057, Cc1cc(NC(=O)CCl)n(C(C)(C)C)n1] | 0 | -16.148 | -16.148 | 0 |
| CC1(C)CCCN1C(=O)CCl [PCM-0103060, CC1(C)CCCN1C(=O)CCl] | 0 | -15.914 | -15.914 | 0 |
| O=C(CCl)NNC(=O)C1CCC1 [PCM-0103061, O=C(CCl)NNC(=O)C1CCC1] | 28 | -15.962 | -15.962 | 14 |
| O=C(CCl)NC1CCSC1=O (centres unmarked) [PCM-0103062, O=C(CCl)NC1CCSC1=O] | 0 | -17.032 | -17.032 | 0 |
| O=C(CCl)N1CCN(Cc2ccccc2)CC1 [PCM-0103063, O=C(CCl)N1CCN(Cc2ccccc2)CC1] | 7 | -16.178 | -16.178 | 35 |
| O=C(CCl)N(C1CCCC1)C1CC1 [PCM-0103064, O=C(CCl)N(C1CCCC1)C1CC1] | 0 | -16.942 | -16.942 | 0 |
| O=C(CCl)NCC1CCC1 [PCM-0103065, O=C(CCl)NCC1CCC1] | 0 | -17.462 | -17.462 | 0 |
